Reference: patent publication US9149038B2, “4-amino-6-(heterocyclic)picolinates and 6-amino-2-(heterocyclic)pyrimidine-4-carboxylates and their use as herbicides” (Dow AgroSciences LLC, priority 2013, dated 2015)
Where two headings read alike, the source gives them in different places.

Assays:
[1] = system: Key Broadleaf Weed and Crop Species; test: Post-Emergent Test II: postemergent herbicidal activity, visual rating after 14 d (Table 7); format: in vivo; settings: post-emergence, 336 h; for pest or weed control at 35 g/ha: 35 g ai/ha; for pest or weed control at 70 g/ha: 70 g ai/ha; for pest or weed control at 140 g/ha: 140 g ai/ha
Outline: (§1)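 Scoring is visual, 0-100, at 14 d after application, comparing treated with untreated plants. Application: overhead track spray at 187 L/ha onto seedlings at 1-2 true leaves, in surfactant/crop-oil carrier.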

[2] = system: Key Grass and Sedge Weeds as well as Grass Crops; test: Post-Emergent Test II: postemergent herbicidal activity, visual rating after 14 d (Table 8); format: in vivo; settings: post-emergence, 336 h; for pest or weed control at 35 g/ha: 35 g ai/ha; for pest or weed control at 70 g/ha: 70 g ai/ha; for pest or weed control at 140 g/ha: 140 g ai/ha
Outline: as §1

[3] = lambsquarters (Chenopodium album), read-out: Visual Growth Reduction (%) 14 Days After Application CHEAL
[4] = oilseed rape, canola (Brassica napus), read-out: Visual Growth Reduction (%) 14 Days After Application BRSNN
[5] = redroot pigweed (Amaranthus retroflexus), read-out: Visual Growth Reduction (%) 14 Days After Application AMARE
[6] = sunflower (Helianthus annuus), read-out: Visual Growth Reduction (%) 14 Days After Application HELAN
[7] = velvetleaf (Abutilon theophrasti), read-out: Visual Growth Reduction (%) 14 Days After Application ABUTH
[8] = wild poinsettia (Euphorbia heterophylla), read-out: Visual Growth Reduction (%) 14 Days After Application EPHHL
[9] = barnyardgrass (Echinochloa crus-galli), read-out: Visual Growth Reduction (%) 14 Days After Application ECHCG
[10] = giant foxtail (Setaria faberi), read-out: Visual Growth Reduction (%) 14 Days After Application SETFA
[11] = rice (Oryza sativa), read-out: Visual Growth Reduction (%) 14 Days After Application ORYSA
[12] = wheat, spring (Triticum aestivum), read-out: Visual Growth Reduction (%) 14 Days After Application TRZAS
[13] = yellow nutsedge (Cyperus esculentus), read-out: Visual Growth Reduction (%) 14 Days After Application CYPES
[14] = maize, corn (Zea mays), read-out: Visual Growth Reduction (%) 14 Days After Application ZEAMX

| SMILES | pest or weed control at 35 g/ha [1, 3] [%] | pest or weed control at 70 g/ha [1, 3] [%] | pest or weed control at 140 g/ha [1, 3] [%] | pest or weed control at 35 g/ha [1, 4] [%] | pest or weed control at 70 g/ha [1, 4] [%] | pest or weed control at 140 g/ha [1, 4] [%] | pest or weed control at 35 g/ha [1, 5] [%] | pest or weed control at 70 g/ha [1, 5] [%] | pest or weed control at 140 g/ha [1, 5] [%] | pest or weed control at 35 g/ha [1, 6] [%] | pest or weed control at 70 g/ha [1, 6] [%] | pest or weed control at 140 g/ha [1, 6] [%] | pest or weed control at 35 g/ha [1, 7] [%] | pest or weed control at 70 g/ha [1, 7] [%] | pest or weed control at 140 g/ha [1, 7] [%] | pest or weed control at 35 g/ha [1, 8] [%] | pest or weed control at 70 g/ha [1, 8] [%] | pest or weed control at 140 g/ha [1, 8] [%] | pest or weed control at 35 g/ha [2, 9] [%] | pest or weed control at 70 g/ha [2, 9] [%] | other results |
| --- | --- | --- | --- | --- | --- | --- | --- | --- | --- | --- | --- | --- | --- | --- | --- | --- | --- | --- | --- | --- | --- |
| Nc1c(F)c(-c2cccc3c2OC(F)(F)O3)nc(C(=O)O)c1Cl [Compound 74] | 85 to 94 | 95 to 100 | 95 to 100 | 75 to 84 | 85 to 94 | 95 to 100 | 95 to 100 | 95 to 100 | 95 to 100 | 75 to 84 | 75 to 84 | 85 to 94 | 0 to 29 | 30 to 44 | 45 to 59 | 0 to 29 | 0 to 29 | 0 to 29 | 0 to 29 | 0 to 29 | pest or weed control at 140 g/ha [2, 9]: 0 to 29%; pest or weed control at 35 g/ha [2, 10]: 0 to 29%; pest or weed control at 70 g/ha [2, 10]: 0 to 29%; pest or weed control at 140 g/ha [2, 10]: 0 to 29%; pest or weed control at 35 g/ha [2, 11]: 0 to 29%; pest or weed control at 70 g/ha [2, 11]: 0 to 29%; pest or weed control at 140 g/ha [2, 11]: 0 to 29%; pest or weed control at 35 g/ha [2, 12]: 0 to 29%; pest or weed control at 70 g/ha [2, 12]: 0 to 29%; pest or weed control at 140 g/ha [2, 12]: 0 to 29%; pest or weed control at 35 g/ha [2, 13]: 0 to 29%; pest or weed control at 70 g/ha [2, 13]: 0 to 29%; pest or weed control at 140 g/ha [2, 13]: 0 to 29% |
| COC(=O)c1nc(-c2cc3c(cc2F)OC(F)(F)O3)c(F)c(N)c1Cl [Compound 9] | 85 to 94 | 85 to 94 | 85 to 94 | 75 to 84 | 85 to 94 | 95 to 100 | 0 to 29 | 0 to 29 | 0 to 29 | 85 to 94 | 85 to 94 | 95 to 100 | 75 to 84 | 85 to 94 | 95 to 100 | 75 to 84 | 85 to 94 | 85 to 94 | 85 to 94 | 85 to 94 | pest or weed control at 140 g/ha [2, 9]: 95 to 100%; pest or weed control at 35 g/ha [2, 10]: 45 to 59%; pest or weed control at 70 g/ha [2, 10]: 60 to 74%; pest or weed control at 140 g/ha [2, 10]: 75 to 84%; pest or weed control at 35 g/ha [2, 14]: 60 to 74%; pest or weed control at 70 g/ha [2, 14]: 60 to 74%; pest or weed control at 140 g/ha [2, 14]: 75 to 84%; pest or weed control at 35 g/ha [2, 11]: 0 to 29%; pest or weed control at 70 g/ha [2, 11]: 0 to 29%; pest or weed control at 140 g/ha [2, 11]: 0 to 29%; pest or weed control at 35 g/ha [2, 12]: 30 to 44%; pest or weed control at 70 g/ha [2, 12]: 45 to 59%; pest or weed control at 140 g/ha [2, 12]: 60 to 74%; pest or weed control at 35 g/ha [2, 13]: 95 to 100%; pest or weed control at 70 g/ha [2, 13]: 95 to 100%; pest or weed control at 140 g/ha [2, 13]: 95 to 100% |
